Laboratory results: the supplement of paper PMC5908809

Legend:
[1] = tested on: normal primary NK cells, pool 1 (3 donors) (IL-2 2.5 ng/mL); assay: percent inhibition of viability; higher = more inhibition; conditions: 72 h
NK-92 (IL-2 2.5 ng/mL) [2] = assay: as above; conditions: 72 h
SNK-6 (IL-2 2.5 ng/mL) [3] = assay: as above; conditions: 72 h
KHYG-1 (IL-2 2.5 ng/mL) [4] = assay: as above; conditions: 72 h
DERL-7 (IL-2 2.5 ng/mL) [5] = assay: as above; conditions: 72 h
NK-YS (IL-2 2.5 ng/mL) [6] = assay: as above; conditions: 72 h
NKL (IL-2 2.5 ng/mL) [7] = assay: as above; conditions: 72 h
YT (IL-2 2.5 ng/mL) [8] = assay: as above; conditions: 72 h
[9] = tested on: normal primary NK cells, pool 1 (3 donors), resting (IL-2 0 ng/mL); assay: as above; conditions: 72 h
[10] = tested on: normal primary NK cells, pool 2 (3 donors) (IL-2 2.5 ng/mL); assay: as above; conditions: 72 h
IMC-1 (IL-2 20 ng/mL) [11] = assay: as above; conditions: 72 h
[12] = tested on: normal primary NK cells, pool 3 (3 donors) (IL-2 2.5 ng/mL); assay: as above; conditions: 72 h
KAI3 (IL-2 2.5 ng/mL) [13] = assay: as above; conditions: 72 h
[14] = tested on: normal NK cells expanded with K562-aAPC; assay: as above; conditions: 72 h, IL-2 2.5 ng/mL
Protocol: (§1)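 Drug sensitivity and resistance testing on K562-aAPC-expanded normal NK cells: 5 concentrations (10-fold steps over a 10,000-fold range), 72 h at 37 °C, viability by CellTiter-Glo normalised to DMSO and benzethonium chloride controls; DSS from the fitted curve.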

[15] = tested on: normal NK cells expanded with K562-aAPC; assay: drug sensitivity score (DSS) (DSS units); higher = more sensitive; extreme values may be limits of the assay; conditions: 72 h; IL-2 2.5 ng/mL
Protocol: as §1

[16] = tested on: normal primary NK cells, pool 1 (3 donors) (IL-2 2.5 ng/mL); assay: as above; conditions: 72 h
NK-92 (IL-2 2.5 ng/mL) [17] = assay: as above; conditions: 72 h
SNK-6 (IL-2 2.5 ng/mL) [18] = assay: as above; conditions: 72 h
KHYG-1 (IL-2 2.5 ng/mL) [19] = assay: as above; conditions: 72 h
DERL-7 (IL-2 2.5 ng/mL) [20] = assay: as above; conditions: 72 h
NK-YS (IL-2 2.5 ng/mL) [21] = assay: as above; conditions: 72 h
NKL (IL-2 2.5 ng/mL) [22] = assay: as above; conditions: 72 h
YT (IL-2 2.5 ng/mL) [23] = assay: as above; conditions: 72 h
[24] = tested on: normal primary NK cells, pool 1 (3 donors), resting (IL-2 0 ng/mL); assay: as above; conditions: 72 h
[25] = tested on: normal primary NK cells, pool 2 (3 donors) (IL-2 2.5 ng/mL); assay: as above; conditions: 72 h
IMC-1 (IL-2 20 ng/mL) [26] = assay: as above; conditions: 72 h
[27] = tested on: normal primary NK cells, pool 3 (3 donors) (IL-2 2.5 ng/mL); assay: as above; conditions: 72 h
KAI3 (IL-2 2.5 ng/mL) [28] = assay: as above; conditions: 72 h

CNCc1ccc(-c2[nH]c3cc(F)cc4c3c2CCNC4=O)cc1 [Rucaparib] (max concentration tested 10000 nM)
percent inhibition of viability [%]
Conditions | 1 nM | 10 nM | 100 nM | 1000 nM | 10000 nM
DERL-7 (IL-2 2.5 ng/mL) [5] | -9.87 | 10 | 4.56 | 3.4 | 22.7
IMC-1 (IL-2 20 ng/mL) [11] | -6.39 | -3.67 | -0.13 | 1.12 | 30.4
KAI3 (IL-2 2.5 ng/mL) [13] | -1.49 | 2.99 | 3.22 | 18.5 | 43.5
KHYG-1 (IL-2 2.5 ng/mL) [4] | -3.58 | -2.03 | -1.44 | 4.57 | 20
NK-92 (IL-2 2.5 ng/mL) [2] | -18.8 | 8.56 | -9.2 | 6.16 | 47.7
NK-YS (IL-2 2.5 ng/mL) [6] | -2.32 | -3.72 | 1.59 | 11.2 | 75.7
NKL (IL-2 2.5 ng/mL) [7] | -15.5 | 5.49 | 23.9 | 53.6 | 87.9
SNK-6 (IL-2 2.5 ng/mL) [3] | 7.29 | -11.5 | -2.3 | 1 | 31
YT (IL-2 2.5 ng/mL) [8] | -4.68 | -5.01 | -3.45 | 2.32 | 17.4
[1] | 4.59 | 15.4 | 12.4 | 3.34 | 18.9
[9] | 3.79 | 19.2 | 4.4 | 7.5 | -5.08
[10] | -2.83 | 5.08 | -1.77 | -1.32 | 4.05
[12] | -0.27 | 12.1 | 3.56 | -0.98 | 7.3
[14] | -4.01 | -1.44 | -1.55 | 6.35 | 21.8

Conditions | drug sensitivity score
DERL-7 (IL-2 2.5 ng/mL) [20] | 1.29
IMC-1 (IL-2 20 ng/mL) [26] | 1.47
KAI3 (IL-2 2.5 ng/mL) [28] | 4.23
KHYG-1 (IL-2 2.5 ng/mL) [19] | 1.18
NK-92 (IL-2 2.5 ng/mL) [17] | 3.52
NK-YS (IL-2 2.5 ng/mL) [21] | 6.07
NKL (IL-2 2.5 ng/mL) [22] | 13.3
SNK-6 (IL-2 2.5 ng/mL) [18] | 1.5
YT (IL-2 2.5 ng/mL) [23] | 0.68
[15] | 1.54
[16] | 0
[24] | 0
[25] | 0
[27] | 0

COc1ccc(COc2cc3oc(=O)c4cc(C(C)O)ccc4c3cc2OC)cc1 (stereo not drawn) [Palomid-529] (max concentration tested 10000 nM)
percent inhibition of viability [%]
Conditions | 1 nM | 10 nM | 100 nM | 1000 nM | 10000 nM
DERL-7 (IL-2 2.5 ng/mL) [5] | -6.43 | -4.11 | -0.12 | 1.25 | 21.1
IMC-1 (IL-2 20 ng/mL) [11] | -5.32 | -4.51 | 2.75 | 4.92 | 7.18
KAI3 (IL-2 2.5 ng/mL) [13] | -1.34 | 0.71 | -2.91 | 8.03 | 46.9
KHYG-1 (IL-2 2.5 ng/mL) [4] | 1.15 | -4.29 | -3.13 | 9.18 | 59.6
NK-92 (IL-2 2.5 ng/mL) [2] | -6.63 | -14.2 | 2.8 | 30.5 | 83.4
NK-YS (IL-2 2.5 ng/mL) [6] | -3.04 | -9.05 | -5.45 | 9.61 | 44.8
NKL (IL-2 2.5 ng/mL) [7] | -6.62 | -2.59 | 6.05 | 30.5 | 33.3
SNK-6 (IL-2 2.5 ng/mL) [3] | -15.9 | -23.8 | -10.8 | 8.45 | 5.08
YT (IL-2 2.5 ng/mL) [8] | -2.49 | -9.33 | -3.82 | 12.3 | 49.4
[1] | -7.97 | -4.09 | 6.27 | 8.93 | 4.45
[9] | -31.1 | -17.8 | -2.41 | -12.2 | 10.7
[10] | -5.4 | -5.23 | -8.91 | -7.52 | 4.06
[12] | -14.4 | -4.43 | 2.41 | -2.08 | 5.65
[14] | -9.29 | -6.42 | -4.58 | 4.67 | 5.9

Conditions | drug sensitivity score
DERL-7 (IL-2 2.5 ng/mL) [20] | 0.82
IMC-1 (IL-2 20 ng/mL) [26] | 0
KAI3 (IL-2 2.5 ng/mL) [28] | 3.78
KHYG-1 (IL-2 2.5 ng/mL) [19] | 4.78
NK-92 (IL-2 2.5 ng/mL) [17] | 8.66
NK-YS (IL-2 2.5 ng/mL) [21] | 3.86
NKL (IL-2 2.5 ng/mL) [22] | 5.94
SNK-6 (IL-2 2.5 ng/mL) [18] | 0
YT (IL-2 2.5 ng/mL) [23] | 4.52
[15] | 0
[16] | 0
[24] | 0
[25] | 0
[27] | 0
